The results in this text go back to US20230192700A1, “PYRAZOLOPYRAZINES ACTING ON CANCERS VIA INHIBITION OF CDK12” (Bayer Aktiengesellschaft, priority 2020, published 2023).

Experiment [1] addresses T1, CDK9/CyclinT1 (Homo sapiens, UniProt P50750).
T1 construct: Recombinant full-length His-tagged human CDK9 and CycT1; His-tag; purchased Life Technologies PV4131; host or cells: insect cells
The experiment is described as follows: CDK9/CycT1 high ATP kinase assay (TR-FRET). The class given is biochemical. Conditions: 2 mM ATP (high ATP); median; read-out: CDK9/CyclinT1, 2 mM ATP (high ATP) IC50 - [mol/l] (median). On the procedure:
2.5 CDK9/CycT1 High ATP Kinase Assay
CDK9/CycT1 -inhibitory activity of compounds of the present invention at a high ATP concentration after preincubation of enzyme and test compounds was quantified employing the CDK9/CycT1 TR-FRET assay as described in the following paragraphs.
Recombinant full-length His-tagged human CDK9 and CycT1, expressed in insect cells and purified by Ni-NTA affinity chromatography, were purchased from Life Technologies (Cat. No PV4131). As substrate for the kinase reaction biotinylated peptide biotin-Ttds-YISPLKSPYKISEG (C-terminus in amide form) was used which can be purchased e.g. form the company JERINI peptide technologies (Berlin, Germany).
For the assay 50 nanoL of a 100 fold concentrated solution of the test compound in DMSO was pipetted into either a black low volume 384 well microtiter plate or a black 1536 well microtiter plate (both Greiner Bio-One, Frickenhausen, Germany), 2 microL of a solution of CDK9/CycT1 in aqueous assay buffer [50 millimol/L Tris/HCl pH 8.0, 10 millimol/L MgCl2, 1.0 millimol/L dithiothreitol, 0.1 millimol/L sodium ortho-vanadate, 0.01% (v/v) Nonidet-P40 (Sigma)] were added and the mixture was incubated for 15 min at 22° C. to allow pre-binding of the test compounds to the enzyme before the start of the kinase reaction. Then the kinase reaction was started by the addition of 3 microL of a solution of adenosine-tri-phosphate (ATP, 3.3 millimol/L=>final conc. in the 5 microL assay volume is 2 millimol/L) and substrate (1.25 micromol/L =>final conc. in the 5 microL assay volume is 0.75 micromol/L) in assay buffer and the resulting mixture was incubated for a reaction time of 25 min at 22° C. The concentration of CDK9/CycT1 was adjusted depending of the activity of the enzyme lot and was chosen appropriate to have the assay in the linear range, typical concentrations were in the range of 0.5 microg/mL. The reaction was stopped by the addition of 3 microL of a solution of TR-FRET detection reagents (0.33 micromol/L streptavidine-XL665 [Cisbio Bioassays, Codolet, France] and 1.67 nanomol/L anti-RB(pSer807/pSer811)-antibody from BD Pharmingen [#558389] and 2 nanomol/L LANCE EU-W1024 labeled anti-mouse IgG antibody [Perkin-Elmer, product no. AD0077]) in an aqueous EDTA-solution (167 millimol/L EDTA, 0.2% (w/v) bovine serum albumin in 100 millimol/L HEPES pH 7.5).
(§1) The resulting mixture was incubated 1 h at 22° C. to allow the formation of complex between the phosphorylated biotinylated peptide and the detection reagents. Subsequently the amount of phosphorylated substrate was evaluated by measurement of the resonance energy transfer from the Eu-chelate to the streptavidine-XL. Therefore, the fluorescence emissions at 620 nm and 665 nm after excitation at 350 nm was measured in a TR-FRET reader, e.g. a Pherastar (BMG Labtechnologies, Offenburg, Germany) or a Viewlux (Perkin-Elmer). The ratio of the emissions at 665 nm and at […] was taken as the measure for the amount of phosphorylated substrate. The data were normalised (enzyme reaction without inhibitor=0% inhibition, all other assay components but no enzyme=100% inhibition).
(In general: In TR-FRET formats the signal depends on donor and acceptor labels being close together.)

The target of experiment [2] is T2, CDK2/CyclinE (Homo sapiens, UniProt P24941).
T2 construct: GST; purchased ProQinase GmbH (Freiburg, Germany); host or cells: insect cells (Sf9)
Put plainly: CDK2/CycE kinase assay (TR-FRET). As to conditions: 2 mM ATP (high ATP); median; read-out: CDK2/CyclinE, 2 mM ATP (high ATP) IC50 - [mol/l] (median). It counts as biochemical.
From the text: 2.4 CDK2/CycE Kinase Assay
CDK2/CycE-inhibitory activity of compounds of the present invention was quantified employing the CDK2/CycE TR-FRET assay as described in the following paragraphs.
Recombinant fusion proteins of GST and human CDK2 and of GST and human CycE, expressed in insect cells (Sf9) and purified by Glutathion-Sepharose affinity chromatography, were purchased from ProQinase GmbH (Freiburg, Germany). As substrate for the kinase reaction biotinylated peptide biotin-Ttds-YISPLKSPYKISEG (C-terminus in amid form) was used which can be purchased e.g. form the company JERINI peptide technologies (Berlin, Germany).
For the assay 50 nanoL of a 100 fold concentrated solution of the test compound in DMSO was pipetted into a black low volume 384 well microtiter plate or a black 1536 well microtiter plate (both Greiner Bio-One, Frickenhausen, Germany), 2 microL of a solution of CDK2/CycE in aqueous assay buffer [50 millimol/L Tris/HCl pH 8.0, 10 millimol/L MgCl2, 1.0 millimol/L dithiothreitol, 0.1 millimol/L sodium ortho-vanadate, 0.01% (v/v) Nonidet-P40 (Sigma)] were added and the mixture was incubated for 15 min at 22° C. to allow pre-binding of the test compounds to the enzyme before the start of the kinase reaction. Then the kinase reaction was started by the addition of 3 microL of a solution of adenosine-tri-phosphate (ATP, 3.33 millimol/L=>final conc. in the 5 microL assay volume is 2 millimol/L) and substrate (1.25 micromol/L=>final conc. in the 5 microL assay volume is 0.75 micromol/L) in assay buffer and the resulting mixture was incubated for a reaction time of 25 min at 22° C. The concentration of CDK2/CycE was adjusted depending of the activity of the enzyme lot and was chosen appropriate to have the assay in the linear range, typical concentrations were in the range of 10 ng/mL. The reaction was stopped by the addition of 3 microL of a solution of TR-FRET detection reagents (0.333 micromol/L streptavidine-XL665 [Cisbio Bioassays, Codolet, France] and 1.67 nanomol/L anti-RB(pSer807/pSer811)-antibody from BD Pharmingen [#558389] and 2 nanomol/L LANCE EU-W1024 labeled anti-mouse IgG antibody [Perkin-Elmer, product no. AD0077, as an alternative a Terbium-cryptate-labeled anti-mouse IgG antibody from Cisbio Bioassays can be used]) in an aqueous EDTA-solution (167 millimol/L EDTA, 0.2% (w/v) bovine serum albumin in 100 millimol/L HEPES pH 7.5).
as §1

T1 sequence (P50750 whole entry): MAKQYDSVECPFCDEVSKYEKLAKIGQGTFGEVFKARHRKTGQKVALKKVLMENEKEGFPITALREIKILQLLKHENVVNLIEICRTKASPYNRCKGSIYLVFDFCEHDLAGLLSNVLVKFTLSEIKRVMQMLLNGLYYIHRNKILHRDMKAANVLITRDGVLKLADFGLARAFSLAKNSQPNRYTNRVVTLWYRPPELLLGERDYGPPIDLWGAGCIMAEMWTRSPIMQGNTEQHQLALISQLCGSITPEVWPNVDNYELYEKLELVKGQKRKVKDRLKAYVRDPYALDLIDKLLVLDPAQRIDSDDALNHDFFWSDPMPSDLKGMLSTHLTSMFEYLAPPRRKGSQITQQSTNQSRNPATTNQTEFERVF
T1 sequence (O60563 whole entry partner): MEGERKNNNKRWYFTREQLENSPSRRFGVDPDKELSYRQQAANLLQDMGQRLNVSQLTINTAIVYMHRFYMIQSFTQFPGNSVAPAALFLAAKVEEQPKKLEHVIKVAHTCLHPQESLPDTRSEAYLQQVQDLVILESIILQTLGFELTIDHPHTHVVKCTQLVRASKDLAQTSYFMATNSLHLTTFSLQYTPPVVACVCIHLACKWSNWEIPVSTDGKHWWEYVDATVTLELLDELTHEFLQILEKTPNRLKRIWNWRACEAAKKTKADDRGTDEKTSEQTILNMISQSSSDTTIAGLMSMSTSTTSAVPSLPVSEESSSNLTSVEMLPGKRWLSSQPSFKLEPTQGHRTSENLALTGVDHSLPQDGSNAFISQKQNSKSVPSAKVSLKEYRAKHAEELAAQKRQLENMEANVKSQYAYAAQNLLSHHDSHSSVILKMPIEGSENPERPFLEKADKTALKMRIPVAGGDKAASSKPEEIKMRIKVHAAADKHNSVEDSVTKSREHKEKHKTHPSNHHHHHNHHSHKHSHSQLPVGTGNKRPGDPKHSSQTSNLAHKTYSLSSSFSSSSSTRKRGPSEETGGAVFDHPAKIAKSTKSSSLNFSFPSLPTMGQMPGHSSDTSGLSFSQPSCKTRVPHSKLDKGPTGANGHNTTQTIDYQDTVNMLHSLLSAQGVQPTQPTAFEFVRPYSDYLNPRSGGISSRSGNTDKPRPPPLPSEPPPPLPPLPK

`CC(C)(O)C1CC(n2nc(NCc3nc4ccccc4[nH]3)c3ncc(C4CC4)nc32)C1` (mixture of isomers) [Example 48, 2-[cis/trans-3-(3-{[(1H-benzimidazol-2-yl)methyl]amino}-6-cyclopropyl-1H-pyrazolo[3,4-b]pyrazin-1-yl)cyclobutyl]propan-2-ol]: the IC50 in experiment [1] and in experiment [2] was greater than 20 µM in each case.

Take `O=CO.c1ccc(-n2nc(NCc3nc4ccccc4[nH]3)c3ncc(C4CC4)nc32)cc1` [Example 13, formic acid—N-[(1H-benzimidazol-2-yl)methyl]-6-cyclopropyl-1-phenyl-1H-pyrazolo[3,4-b]pyrazin-3-amine (1/1)]: the IC50 in experiment [1] and in experiment [2] was greater than 20 µM each time.

`c1ccc2[nH]c(CNc3nn(C4CCOC4)c4nc(C5CC5)cnc34)nc2c1` (single isomer, unassigned) [Example 17, (+) or (−)-N-[(1H-benzimidazol-2-yl)methyl]-6-cyclopropyl-1-(oxolan-3-yl)-1H-pyrazolo[3,4-b]pyrazin-3-amine]: the IC50 in experiment [1] and in experiment [2] was greater than 20 µM in each case.

In the case of `OC[C@H]1C[C@@H](n2nc(NCc3nc4ccccc4[nH]3)c3ncc(C4CC4)nc32)C1` [Example 47, [cis-3-(3-{[(1H-benzimidazol-2-yl)methyl]amino}-6-cyclopropyl-1H-pyrazolo[3,4-b]pyrazin-1-yl)cyclobutyl]methanol], the IC50 in experiment [1] and in experiment [2] was greater than 20 µM in each case.

Turning to `COCCn1nc(NCc2nc3ccccc3[nH]2)c2ncc(C3CC3)nc21` [Example 65, N-[(1H-benzimidazol-2-yl)methyl]-6-cyclopropyl-1-(2-methoxyethyl)-1H-pyrazolo[3,4-b]pyrazin-3-amine], the IC50 in experiment [1] and in experiment [2] was greater than 20 µM each time.

In the case of `OCCCn1nc(NCc2nc3ccccc3[nH]2)c2ncc(C3CC3)nc21` [Example 60, 3-(3-{[(1H-benzimidazol-2-yl)methyl]amino}-6-cyclopropyl-1H-pyrazolo[3,4-b]pyrazin-1-yl)propan-1-ol], the IC50 in experiment [1] and in experiment [2] was greater than 20 µM in each case.

Turning to `O[C@H]1CC[C@H](n2nc(NCc3nc4ccccc4[nH]3)c3ncc(C4CC4)nc32)CC1` [Example 50, trans-4-(3-{[(1H-benzimidazol-2-yl)methyl]amino}-6-cyclopropyl-1H-pyrazolo[3,4-b]pyrazin-1-yl)cyclohexan-1-ol], the IC50 in experiment [1] and in experiment [2] was greater than 20 µM each time.

Turning to `c1ccc2[nH]c(CNc3nn(C4CCOC4)c4nc(C5CC5)cnc34)nc2c1` (single isomer, unassigned) [Example 18, (-) or (+) -N-[(1H-benzimidazol-2-yl)methyl]-6-cyclopropyl-1-[oxolan-3-yl]-1H-pyrazolo[3,4-b]pyrazin-3-amine], the IC50 in experiment [1] and in experiment [2] was greater than 20 µM in each case.

Consider `CC(CCN(C)C)n1nc(NCc2nc3ccccc3[nH]2)c2ncc(C3CC3)nc21` (single isomer, unassigned) [Example 63, (+) or (−)-N-[(1H-benzimidazol-2-yl)methyl]-6-cyclopropyl-1-[4-(dimethylamino)butan-2-yl]-1H-pyrazolo[3,4-b]pyrazin-3-amine], for which the IC50 in experiment [1] and in experiment [2] was greater than 20 µM throughout.

On to `OCC1(Cn2nc(NCc3nc4ccccc4[nH]3)c3ncc(C4CC4)nc32)CCC1` [Example 74, {1-[(3-{[(1H-benzimidazol-2-yl)methyl]amino}-6-cyclopropyl-1H-pyrazolo[3,4-b]pyrazin-1-yl)methyl]cyclobutyl}methanol], for which the IC50 in experiment [1] and in experiment [2] was greater than 20 µM each time.

As for `CN1CCC(n2nc(NCc3nc4cc(Cl)c(Cl)cc4[nH]3)c3ncc(C4CC4)nc32)CC1` [Example 19, 6-cyclopropyl-N-[(5,6-dichloro-1H-benzimidazol-2-yl)methyl]-1-(1-methylpiperidin-4-yl)-1H-pyrazolo[3,4-b]pyrazin-3-amine], the IC50 in experiment [1] and in experiment [2] was greater than 20 µM throughout.

Regarding `Cc1ccc2[nH]c(CNc3nn(C4CCN(C)CC4)c4nc(C5CC5)cnc34)nc2c1` [Example 6, 6-cyclopropyl-N-[(5-methyl-1H-benzimidazol-2-yl)methyl]-1-(1-methylpiperidin-4-yl)-1H-pyrazolo[3,4-b]pyrazin-3-amine], the results for the IC50 in experiment [1] and in experiment [2] were no less than 12.7 µM and greater than 20 µM, respectively.

Take `COC(C)(C)CCn1nc(NCc2nc3ccccc3[nH]2)c2ncc(C3CC3)nc21` [Example 67, N-[(1H-benzimidazol-2-yl)methyl]-6-cyclopropyl-1-(3-methoxy-3-methylbutyl)-1H-pyrazolo[3,4-b]pyrazin-3-amine]: the IC50 in experiment [1] and in experiment [2] was greater than 20 µM in each case.

Turning to `COc1cccc2[nH]c(CNc3nn(C4CCN(C)CC4)c4nc(C5CC5)cnc34)nc12` [Example 2, 6-cyclopropyl-N-[(4-methoxy-1H-benzimidazol-2-yl)methyl]-1-(1-methylpiperidin-4-yl)-1H-pyrazolo[3,4-b]pyrazin-3-amine], the IC50 in experiment [1] and in experiment [2] was greater than 20 µM throughout.

Take `CN1CCC(n2nc(NCc3nc4ccccc4[nH]3)c3ncc(C4CC4)nc32)C1` (single isomer, unassigned) [Example 78, (+) or (−)-N-[(1H-benzimidazol-2-yl)methyl]-6-cyclopropyl-1-(1-methylpyrrolidin-3-yl)-1H-pyrazolo[3,4-b]pyrazin-3-amine]: the IC50 in experiment [1] and in experiment [2] was greater than 20 µM in each case.

`OCCn1nc(NCc2nc3ccccc3[nH]2)c2ncc(C3CC3)nc21` [Example 66, 2-(3-{[(1H-benzimidazol-2-yl)methyl]amino}-6-cyclopropyl-1H-pyrazolo[3,4-b]pyrazin-1-yl)ethan-1-ol]: the IC50 in experiment [1] and in experiment [2] was greater than 20 µM in each case.
